Source: ChEMBL document CHEMBL1909046, “DrugMatrix in vitro pharmacology data”
pIC50: −log10 of the molar value.

What was measured:
[1] = biological target: Beta-1 adrenergic receptor (Homo sapiens, UniProt P08588); assay: DRUGMATRIX: Adrenergic beta1 radioligand binding (ligand: [125I] Cyanopindolol); assay type: cell membranes, CHO-K1, Membrane; conditions: cho-k1; Not Active = under 50% inhibition at 10 µM
Calcitonin receptor = biological target: T1, Calcitonin receptor (Homo sapiens, UniProt P30988); assay type: cell membranes, Membrane; conditions: t47d; also: in other assays of this panel Not Active means under 50% inhibition at 10 µM
T1 sequence (P30988 whole entry): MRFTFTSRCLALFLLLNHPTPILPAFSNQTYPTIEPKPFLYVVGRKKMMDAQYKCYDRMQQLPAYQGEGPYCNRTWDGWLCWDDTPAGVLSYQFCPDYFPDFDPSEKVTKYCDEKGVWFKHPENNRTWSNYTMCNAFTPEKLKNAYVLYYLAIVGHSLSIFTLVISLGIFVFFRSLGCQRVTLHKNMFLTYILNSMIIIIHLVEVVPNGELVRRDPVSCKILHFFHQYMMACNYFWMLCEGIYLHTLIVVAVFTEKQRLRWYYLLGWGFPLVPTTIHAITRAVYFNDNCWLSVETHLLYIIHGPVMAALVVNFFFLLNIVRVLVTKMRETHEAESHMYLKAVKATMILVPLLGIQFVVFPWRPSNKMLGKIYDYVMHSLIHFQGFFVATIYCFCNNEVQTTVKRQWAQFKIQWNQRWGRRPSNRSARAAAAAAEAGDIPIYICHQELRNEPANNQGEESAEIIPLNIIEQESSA

Substance-P receptor = Substance-P receptor (Homo sapiens, UniProt P25103); assay type: cell membranes, Membrane; conditions: cho; also: in other assays of this panel Not Active means under 50% inhibition at 10 µM
[2] = DRUGMATRIX: Tumor Necrosis Factor (TNF), Non-Selective radioligand binding (ligand: [125I] TNF-alpha); assay type: cell membranes, Membrane; conditions: u-937; Not Active = under 50% inhibition at 10 µM
[3] = DRUGMATRIX: GABAA, Chloride Channel, TBOB radioligand binding (ligand: [3H] TBOB); assay type: cell membranes, Rattus norvegicus, Wistar, Cerebral cortex, Membrane; conditions: Not Active = under 50% inhibition at 10 µM
[4] = biological target: T2, 3-hydroxy-3-methylglutaryl-coenzyme A reductase (Homo sapiens, UniProt P04035); design: species or system Escherichia coli;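 also: enzyme inhibition assay of HMG-CoA reductase using radiolabeled [14C]HMG-CoA as substrate; in other assays of this panel Not Active means under 50% inhibition at 10 µM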
T2 sequence (P04035 whole entry): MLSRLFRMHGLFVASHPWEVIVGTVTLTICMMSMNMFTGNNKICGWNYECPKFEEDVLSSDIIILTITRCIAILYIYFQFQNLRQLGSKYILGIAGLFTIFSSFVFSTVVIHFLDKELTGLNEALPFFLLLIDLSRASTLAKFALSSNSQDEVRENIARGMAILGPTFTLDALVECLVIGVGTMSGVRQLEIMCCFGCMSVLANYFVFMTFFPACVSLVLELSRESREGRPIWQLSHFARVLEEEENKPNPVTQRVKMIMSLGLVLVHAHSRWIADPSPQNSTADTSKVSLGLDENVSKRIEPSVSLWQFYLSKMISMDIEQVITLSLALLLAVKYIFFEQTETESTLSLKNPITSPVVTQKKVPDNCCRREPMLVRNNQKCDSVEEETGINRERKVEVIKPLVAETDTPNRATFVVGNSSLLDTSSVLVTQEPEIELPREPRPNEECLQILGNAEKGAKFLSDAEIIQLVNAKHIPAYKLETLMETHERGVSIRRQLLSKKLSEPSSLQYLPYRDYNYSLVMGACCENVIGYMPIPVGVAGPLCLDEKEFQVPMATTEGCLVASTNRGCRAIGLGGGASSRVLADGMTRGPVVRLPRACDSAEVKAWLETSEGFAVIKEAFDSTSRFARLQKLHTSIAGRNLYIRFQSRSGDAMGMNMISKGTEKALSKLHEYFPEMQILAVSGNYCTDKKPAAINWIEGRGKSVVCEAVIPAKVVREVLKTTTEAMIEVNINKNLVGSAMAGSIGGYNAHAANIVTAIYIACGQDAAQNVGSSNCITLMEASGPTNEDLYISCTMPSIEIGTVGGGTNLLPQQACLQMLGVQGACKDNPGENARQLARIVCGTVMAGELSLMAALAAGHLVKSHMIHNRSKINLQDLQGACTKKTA

[5] = DRUGMATRIX: Interleukin IL-1 radioligand binding (ligand: [125I] interleukin 1beta); assay type: cell membranes, Membrane; conditions: nih3t3; Not Active = under 50% inhibition at 10 µM
[6] = biological target: T3, Neuropeptide Y receptor type 2 (Homo sapiens, UniProt P49146); assay type: cell membranes, Membrane; conditions: kan-ts; also: in other assays of this panel Not Active means under 50% inhibition at 10 µM
T3 sequence (P49146 whole entry): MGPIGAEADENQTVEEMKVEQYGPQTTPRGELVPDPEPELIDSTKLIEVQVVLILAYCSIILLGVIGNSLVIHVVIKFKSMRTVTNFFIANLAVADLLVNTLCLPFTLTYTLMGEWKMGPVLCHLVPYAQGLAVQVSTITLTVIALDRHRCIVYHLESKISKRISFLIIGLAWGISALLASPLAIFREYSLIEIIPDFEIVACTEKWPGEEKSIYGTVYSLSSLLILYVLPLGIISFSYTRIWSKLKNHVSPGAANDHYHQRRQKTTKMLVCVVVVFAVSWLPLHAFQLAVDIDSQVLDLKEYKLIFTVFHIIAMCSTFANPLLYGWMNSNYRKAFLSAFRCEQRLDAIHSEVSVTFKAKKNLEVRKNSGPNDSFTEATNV

[7] = DRUGMATRIX: Phosphodiesterase PDE4 enzyme inhibition (substrate: [3H]cAMP + cAMP); conditions: u-937; Not Active = under 50% inhibition at 10 µM
[8] = biological target: cGMP-specific 3',5'-cyclic phosphodiesterase (Homo sapiens, UniProt O76074); assay: DRUGMATRIX: Phosphodiesterase PDE5 enzyme inhibition (substrate: [3H]cGMP + cGMP); assay type: tissue-based; conditions: platelet; Not Active = under 50% inhibition at 10 µM
[9] = biological target: Tyrosine-protein kinase Fyn (Homo sapiens, UniProt P06241); assay: biochemical; assay type: cell-based, Insect cells; conditions: for IC50: insect cells; for pIC50: read-out: IC50
Sequence of Tyrosine-protein kinase Fyn (P06241 whole entry): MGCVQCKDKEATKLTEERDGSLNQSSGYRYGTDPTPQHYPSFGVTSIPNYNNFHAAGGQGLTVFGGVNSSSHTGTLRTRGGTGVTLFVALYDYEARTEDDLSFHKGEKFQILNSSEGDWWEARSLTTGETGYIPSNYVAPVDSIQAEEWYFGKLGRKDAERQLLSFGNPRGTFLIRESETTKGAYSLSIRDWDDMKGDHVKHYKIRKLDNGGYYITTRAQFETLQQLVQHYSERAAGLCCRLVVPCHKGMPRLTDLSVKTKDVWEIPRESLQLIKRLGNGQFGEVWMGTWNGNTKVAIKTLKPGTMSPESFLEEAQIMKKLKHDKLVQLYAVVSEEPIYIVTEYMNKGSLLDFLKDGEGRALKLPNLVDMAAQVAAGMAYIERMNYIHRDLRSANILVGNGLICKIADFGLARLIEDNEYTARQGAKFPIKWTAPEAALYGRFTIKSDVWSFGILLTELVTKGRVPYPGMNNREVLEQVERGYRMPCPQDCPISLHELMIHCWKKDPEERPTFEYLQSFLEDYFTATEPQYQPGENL

Sequence of Beta-1 adrenergic receptor (P08588 whole entry): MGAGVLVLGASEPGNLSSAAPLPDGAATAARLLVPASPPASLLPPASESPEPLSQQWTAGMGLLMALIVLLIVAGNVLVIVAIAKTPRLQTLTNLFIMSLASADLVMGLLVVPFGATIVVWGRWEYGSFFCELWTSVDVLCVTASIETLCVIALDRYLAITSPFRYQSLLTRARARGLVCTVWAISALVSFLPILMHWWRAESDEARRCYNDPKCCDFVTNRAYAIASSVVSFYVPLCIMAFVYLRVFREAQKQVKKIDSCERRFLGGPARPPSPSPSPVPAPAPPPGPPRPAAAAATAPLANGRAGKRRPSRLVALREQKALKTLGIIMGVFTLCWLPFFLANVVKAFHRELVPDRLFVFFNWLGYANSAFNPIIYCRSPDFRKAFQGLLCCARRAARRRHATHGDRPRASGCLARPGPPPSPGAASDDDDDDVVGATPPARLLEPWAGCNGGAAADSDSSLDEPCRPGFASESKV
Sequence of Substance-P receptor (P25103 whole entry): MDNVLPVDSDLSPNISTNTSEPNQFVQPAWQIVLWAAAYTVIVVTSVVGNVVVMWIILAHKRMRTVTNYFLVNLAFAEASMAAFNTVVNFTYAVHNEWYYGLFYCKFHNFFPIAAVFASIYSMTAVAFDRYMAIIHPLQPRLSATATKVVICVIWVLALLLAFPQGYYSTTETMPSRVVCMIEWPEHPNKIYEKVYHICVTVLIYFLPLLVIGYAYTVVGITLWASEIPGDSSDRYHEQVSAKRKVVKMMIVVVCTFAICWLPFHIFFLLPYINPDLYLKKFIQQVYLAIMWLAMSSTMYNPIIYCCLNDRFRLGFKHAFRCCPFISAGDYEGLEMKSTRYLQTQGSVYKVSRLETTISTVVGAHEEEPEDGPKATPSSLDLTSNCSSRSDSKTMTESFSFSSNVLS

Structure (SMILES)	IC50 [1]	IC50 (Calcitonin receptor)	IC50 (Substance-P receptor)	IC50 [2]	Ki [2]	IC50 [3]	Ki [3]	IC50 [4]	IC50 [5]	Ki [5]	IC50 [6]	IC50 [7]	Ki [7]	IC50 [8]	IC50 [9]	pIC50 [9]
COCCOC(=O)C1=C(C)NC(C)=C(C(=O)OC(C)C)C1c1cccc([N+](=O)[O-])c1 (stereo not given) [NIMODIPINE]	Not Active	Not Active	Not Active	Not Active	Not Active	Not Active	Not Active	Not Active	Not Active	Not Active	Not Active	Not Active	Not Active	Not Active	Not Active	–
COCCCOc1ccnc(C[S+]([O-])c2nc3ccccc3[nH]2)c1C (stereo not given) [RABEPRAZOLE]	Not Active	Not Active	Not Active	Not Active	Not Active	Not Active	Not Active	Not Active	Not Active	Not Active	Not Active	Not Active	Not Active	Not Active	Not Active	–
O=C(c1ccc(OCCN2CCCCC2)cc1)c1c(-c2ccc(O)cc2)sc2cc(O)ccc12 [RALOXIFENE]	Not Active	Not Active	Not Active	Not Active	Not Active	Not Active	Not Active	Not Active	Not Active	Not Active	Not Active	Not Active	Not Active	Not Active	–	5.44
CNC(=C[N+](=O)[O-])NCCSCc1ccc(CN(C)C)o1 [RANITIDINE]	Not Active	Not Active	Not Active	Not Active	Not Active	Not Active	Not Active	Not Active	Not Active	Not Active	Not Active	Not Active	Not Active	Not Active	Not Active	–
CO[C@H]1/C=C/O[C@@]2(C)Oc3c(C)c(O)c4c(c3C2=O)C2=NC3(CCN(CC(C)C)CC3)NC2=C(NC(=O)/C(C)=C\C=C\[C@H](C)[C@H](O)[C@@H](C)[C@@H](O)[C@@H](C)[C@H](OC(C)=O)[C@@H]1C)C4=O [RIFABUTIN]	Not Active	Not Active	Not Active	Not Active	Not Active	Not Active	Not Active	Not Active	Not Active	Not Active	Not Active	Not Active	Not Active	Not Active	Not Active	–
CC(C)c1nc(CN(C)C(=O)N[C@H](C(=O)N[C@@H](Cc2ccccc2)C[C@H](O)[C@H](Cc2ccccc2)NC(=O)OCc2cncs2)C(C)C)cs1 [RITONAVIR]	Not Active	Not Active	Not Active	Not Active	Not Active	Not Active	Not Active	Not Active	Not Active	Not Active	Not Active	Not Active	Not Active	Not Active	Not Active	–
CC(C)CC(N(C)C)C1(c2ccc(Cl)cc2)CCC1 (stereo not given) [SIBUTRAMINE]	Not Active	Not Active	Not Active	Not Active	Not Active	Not Active	Not Active	Not Active	Not Active	Not Active	Not Active	Not Active	Not Active	Not Active	Not Active	–
[H]/N=C(/N)N[C@H]1[C@H](O)[C@@H](O)[C@H](O[C@@H]2O[C@@H](C)[C@](O)(C=O)[C@H]2O[C@@H]2O[C@@H](CO)[C@H](O)[C@@H](O)[C@@H]2NC)[C@@H](N/C(N)=N\[H])[C@@H]1O [STREPTOMYCIN]	Not Active	Not Active	Not Active	Not Active	Not Active	Not Active	Not Active	Not Active	Not Active	Not Active	Not Active	Not Active	Not Active	Not Active	Not Active	–
COc1cc(NS(=O)(=O)c2ccc(N)cc2)nc(OC)n1 [SULFADIMETHOXINE]	Not Active	Not Active	Not Active	Not Active	Not Active	Not Active	Not Active	Not Active	Not Active	Not Active	Not Active	Not Active	Not Active	Not Active	Not Active	–
Cc1cc(C)nc(NS(=O)(=O)c2ccc(N)cc2)n1 [SULFAMETHAZINE]	Not Active	Not Active	Not Active	Not Active	Not Active	Not Active	Not Active	Not Active	Not Active	Not Active	Not Active	Not Active	Not Active	Not Active	Not Active	–
C[C@]1(Cn2ccnn2)[C@H](C(=O)O)N2C(=O)C[C@H]2S1(=O)=O [TAZOBACTAM]	Not Active	Not Active	Not Active	Not Active	Not Active	Not Active	Not Active	Not Active	Not Active	Not Active	Not Active	Not Active	Not Active	Not Active	Not Active	–
CN1C(C(=O)Nc2ccccn2)=C(O)c2sccc2S1(=O)=O [TENOXICAM]	Not Active	Not Active	Not Active	Not Active	Not Active	Not Active	Not Active	Not Active	Not Active	Not Active	Not Active	Not Active	Not Active	Not Active	Not Active	–
CC(C)(C)c1ccc(C(O)CCCN2CCC(C(O)(c3ccccc3)c3ccccc3)CC2)cc1 (stereo not given) [TERFENADINE]	Not Active	Not Active	Not Active	Not Active	Not Active	Not Active	Not Active	Not Active	Not Active	Not Active	Not Active	Not Active	Not Active	Not Active	–	5.21
